Experimental data published in ChEMBL document CHEMBL1131650, “Reactions of 1-methylbenzimidazole derivatives with m-chloroperoxybenzoic acid” (Bioorg Med Chem Lett, 1998).

Assay: Compound was evaluated for dissociation constant (pKa)
Type: physicochemical

Row | pKa | SMILES
1 | 6 | Cc1cc2ncn(C)c2cc1C
2 | 5.6 | Cn1cnc2ccccc21
3 | 3.35 | Cn1cnc2ccc([N+](=O)[O-])cc21
4 | 5.7 | Cc1ccc2ncn(C)c2c1
5 | 5.65 | Cc1ccc2c(c1)ncn2C
6 | 3.28 | Cn1cnc2cc([N+](=O)[O-])ccc21

Row | SMILES | pKa
7 | Cn1cnc2cc([N+](=O)[O-])c([N+](=O)[O-])cc21 | 1.6
